Reference: patent publication US10596223B2, “JNK inhibitor molecules for treatment of various diseases” (Xigen Inflammation Ltd., priority 2011, dated 2020)
Entries after “also recorded” stand apart in the source; their conditions may differ. Square brackets hold non-standard residues; d marks the D form. Peptide text beside a SMILES is read from it.

Columns and labels:
[1] = test system: THP1-PMA-differentiated macrophages; assay: LPS-induced cytokine and chemokine release in PMA differentiated THP1 macrophages (ELISA); type: cell-based, human
Experimental: In the following the procedure will be set forth describing how the released amount of several human cytokines after ligand induced secretion from human cells (Blood, WBC, PBMC, purified primary lymphocytes, cell lines, . . . ) was measured.
The technique used is a Sandwich ELISA, which allows measuring the amount of antigen between two layers of antibodies (i.e. capture and detection antibody). The antigen to be measured must contain at least two antigenic sites capable of binding to antibody, since at least two antibodies act in the sandwich. Either monoclonal or polyclonal antibodies can be used as the capture and detection antibodies in Sandwich ELISA systems. Monoclonal antibodies recognize a single epitope that allows fine detection and quantification of small differences in antigen. A polyclonal is often used as the capture antibody to pull down as much of the antigen as possible.
The method may be used to determine the effect of the JNK inhibitors of the present invention in vitro/cell culture. At non toxic doses, compound efficacy is indicated by the decrease of the cytokine levels (the variation of optical density (absorbance at 450 nm)) as compared to non-treated samples and is monitored by ELISA. Results are express in ng/ml.
In the following the procedure will be set forth describing how cytokine production from human PMA differentiated THP1 cells challenged by LPS for 6 h was induced in order to test the ability of JNK inhibitors of the present invention, in particular of a JNK inhibitor with SEQ ID NO: 172, to reduce stimulation-induced cytokine release. THP1 cells were stimulated ex-vivo by different ligands for the readout of cytokine release. At non toxic doses, JNK inhibitor efficacy is indicated by the decrease of the cytokine levels as compared to non-treated samples and is monitored by ELISA. The toxicity of the compound are evaluated by the reduction of a tretazolium salt (MTS) to formazan, giving a purple colour.
a. Material • Cell Line: THP-1 (Ref TIB-202, ATCC, lot 57731475) • Culture medium, reagent and plates • RPMI (Ref 21875-091, Invitrogen) complemented with: • 10% FBS (Ref A15-151, PAA): decomplemented at 56° C., 30 min. • 10 mM Hepes (Ref H0887, Sigma) • 50 μM β-mercaptoethanol (Ref 63690, Fluka: stock at 14.3M): add 560 μl of 50 mM aliquots in PBS stocked at −20° C.) • 1 mM Sodium Pyruvate (Ref 58636, Sigma) • Penicilline (100 unit/ml)/Streptomycine (100 μg/ml) (Ref P4333, Sigma) • The RPMI medium is then filtrated with a […] (Ref SCGPU05RE, Millipore). • PBS 10× (Ref 70011, Invitrogen): diluted to 1× with sterile H2O • DMSO: Ref 41444, Fluka • PMA (phorbol 12-myristate 13-acetate, Ref P1585, Sigma, concentration 1 mM=616.8 ug/ml in DMSO at −20° C.). […]

[2] = test system: scopolamine-induced dry eye in mice; assay: Scopolamine-induced model of dry eye (TBUT, PRTT, histopathology); type: in vivo, mouse; conditions: for histological scores of the cornea compared with cyclosporine group: Day 22
Experimental: The objective of this study was to assess the effects of two different compounds, the all-D-retro-inverso JNK-inhibitor (poly-)peptide of SEQ ID NO: 197 and the JNK inhibitor (poly-)peptide of SEQ ID NO: 172, at three dose levels in a mouse model of scopolamine-induced dry eye.
The peptides of SEQ ID NO: 197 and SEQ ID NO: 172 were tested for efficacy in this murine model of dry eye. The peptides were both tested at a low, medium and a high dose. […] The vehicle, which also served as the negative control, was 0.9% Sodium Chloride for Injection USP.
The study consisted of a total of 9 groups of female C57BL/6 mice, comprising 8 groups of 12 mice each and an additional group of 4 mice. Bilateral short-term dry eye was induced by a combination of scopolamine hydrobromide (Sigma-Aldrich Corp., St. Louis, Mo.) injection (subcutaneous (SC), four times daily, 0.5 mg/dose, Days 0-21) and by exposing mice to the drying environment of constant air draft. […] Mice of Group 9 were maintained as un-induced, (no dry eye) untreated controls.
During the in-life (treatment) period, clinical observations were recorded once daily; slit-lamp examination (SLE) with corneal fluorescein staining, tear break-up time test (TBUT), and phenol red thread test (PRTT) were performed three times per week. Necropsies were performed on Day 22; eyes, eye lids, conjunctivae, and lacrimal glands were collected from both eyes of each animal. Tissues from the right eyes (oculus dexter, OD) were fixed and then evaluated microscopically. Tissues from the left eyes (oculus sinister; OS) were flash-frozen in liquid nitrogen and stored frozen at −80° C. for possible subsequent analyses.
Prior to the start of the study, the (poly-)peptides of SEQ ID NO: 172 and of SEQ ID NO: 197 were formulated in sterile saline (vehicle). Dosing solutions at each concentration were sterilized using 0.2-μm filters, aliquoted to multiple pre-labeled vials, and frozen at −20° C.
Prior to entry into the study, each animal underwent a SLE and indirect ophthalmic examination using topically-applied fluorescein. Ocular findings were recorded using the Draize scale ocular scoring. SLE and Draize scoring were repeated three times a week during the in-life period.
The TBUT test was conducted three times weekly by measuring the time elapsed in seconds between a complete blink after application of fluorescein to the cornea and the appearance of the first random dry spot in the tear film. […] At least ninety seconds later, corneal epithelial damage was graded using a slit-lamp with a cobalt blue filter after another drop of 0.1% fluorescein was reapplied to the cornea; the cornea then was scored per the Draize ocular scale.
Tear production was measured three times a week in both eyes using PRTT test strips (Zone-Quick; Menicon, Nagoya, Japan). Prior to the first treatment of the day, a thread was applied to the lateral canthus of the conjunctival fornix of each eye for 30 seconds under slit-lamp biomicroscopy. Tear migration up the tread (i.e., the length of the wetted cotton thread) was measured using a millimeter scale.
At necropsy on Day 22, both eyes from each animal, including the globes, lacrimal glands, eyelids, and conjunctivae, were excised.

[3] = THP1 differentiated macrophages, LPS 6 h (10 ng/ml)
[4] = topical ocular TID, Days 1 to 21

## CC(C)C[C@H](NC(=O)[C@H](CC(N)=O)NC(=O)[C@H](CC(C)C)NC(=O)[C@@H](NC(=O)[C@@H](C)NC(=O)[C@@H]1CCCN1C(=O)[C@H](CCCNC(=N)N)NC(=O)[C@@H](CCCCN)NC(=O)[C@@H]1CCCN1C(=O)[C@H](CCCNC(=N)N)NC(=O)[C@@H](CCCNC(=N)N)NC(=O)[C@H](CCCNC(=N)N)NC(=O)[C@H](CCCNC(=N)N)NC(=O)[C@H](CCC(N)=O)NC(=O)[C@@H](CCCNC(=N)N)NC(=O)[C@H](CCCNC(=N)N)NC(=O)[C@H](CCCCN)NC(=O)[C@H](CCCCN)NC(=O)[C@H](N)CCCNC(=N)N)[C@@H](C)O)C(=O)N[C@H](Cc1ccccc1)C(N)=O [SEQ ID NO: 172, rKKRrQRRrRPkRPaTLNLf] (H-[dR]KKR[dR]QRR[dR]RP[dK]RP[dA]TLNL[dF]-NH2; N-terminus assumed)
[1]; PMA differentiated macrophages
  LPS-induced TNFα release, potency comparison: higher potency than D-TAT-IB1 (SEQ ID NO: 197) and L-TAT-IB1 (SEQ ID NO: 196)
[1]; PMA differentiated macrophages, LPS 6 h
  LPS-induced IL-6 release, potency comparison: higher potency than D-TAT-IB1 (SEQ ID NO: 197) and L-TAT-IB1 (SEQ ID NO: 196)
[1]; [3]
  LPS-induced IL6 release, potency comparison: higher potency than D-TAT-IB1 (SEQ ID NO: 197), dTAT (SEQ ID NO: 45) and SP 600125
  LPS-induced TNFα release, potency comparison: higher potency than D-TAT-IB1 (SEQ ID NO: 197), dTAT (SEQ ID NO: 4.5) and SP 600125
[2]; 0.2% (mid dose)
  histological scores of the cornea compared with cyclosporine group: the most effective, after cyclosporine
[2]; 0.6% (high dose)
  histological scores of the cornea compared with cyclosporine group: the most effective, after cyclosporine
[2]; Day 7 to Day 21, SEQ ID NO: 172 0.05%, 0.2% and 0.6%, cyclosporine 0.05%
  TBUT AUC compared with vehicle control (Kruskal-Wallis): significant increases in the TBUT AUC
[2]; Day 21, mid and high-dose (0.2%, 0.6%)
  PRTT in the last test, aqueous tear production: therapeutic effects similar to cyclosporine
[2]; [4]
  PRTT, production of aqueous tears, low, mid and high dose (in words): significantly more aqueous tears compared to vehicle-treated animals
  TBUT means, low, mid and high dose (in words): above the vehicle group; also recorded: dose-dependent increase in TBUT
